From patent US20170318812A1, “Plant and Crop Growth Regulating/Biostimulant Formulations and Methods of Use” (Arysta Lifescience North America, LLC, priority 2014, published 2017)
Values joined by “and” are separate entries in the source; they are usually repeats but may differ in a detail not shown here. Equal entries are not always repeated.

Tests used:
[1] = tested on: PHSVX Phaseolus vulgaris (Garden bean); experiment: Ipfencarbazone biostimulant effect, early post emergence foliar application, greenhouse pots, plant height: dry bean; format: in vivo; details: PHSVX PEROLA
Description: (§1) The original objective of this Example was to evaluate the herbicidal effect of ipfencarbazone when applied as a post emergent treatment to a range of selected crops and weeds. Unexpectedly, crop plant growth stimulation was observed. The actual species of weeds and crops are listed in the summary data tabulated below and in FIGS. 1-13. By convention each plant species has a Bayer code (5-letter name) with the scientific name for the plant referenced in FIGS. 1-13. In each Figure, each tray contains the same configuration of weeds and/or crops. In each Figure there is one replication of each treatment (six treatments in total). The top three photographs in each Figure show the Bayer Codes and bottom three photographs are aligned with the top three facilitating viewing of the same plant species. Throughout the Examples various abbreviations as conventional shorthand notation and will be appreciated by those skilled in the art. Some exemplary abbreviations include, “CV”=Co-efficient of Variation,” “LSD”=Least Significant Difference” (G/L (gram per L) AND GA/L (gram of active ingredient per L); “SC”=suspension concentrate formulation. The diluent in all treatments was water. By convention factors that are identical in all treatments (e.g. diluent and surfactant) are not listed in each treatment.
(§2) Methods: The indicated size pots (see Tables below) are filled with a specific soil, the soil properties being indicated below. The referenced crops and weeds are planted by hand in each pot. […] The experiments include six treatments each replicated three times on each crop/weed species. At a specific time after emergence each crop and weed species was treated with ipfencarbazone plus a non-ionic surfactant (NIS). In the present Example, the surfactant employed was ENERGIC™ (non-ionic surfactant). The application timing is indicated in each of the Tables (1 or 2 leaf stage) below. Ipfencarbazone plus surfactant was diluted in water and applied at a rate equivalent to about 250 L/ha. Ipfencarbazone was applied using a track sprayer. After treatment, the pots were randomized in a greenhouse. At each assessment (indicated by “days after treatment” or DAT) the height of each plant was measured. The letters next to each mean indicate the level of statistical significance.
(§3) Replications: 3, Untreated treatments: 1, Design: Randomized Complete Block (RCB), Treatment units: Treated ‘Plot’ experimental unit size, Dry Form. Unit: %, Treated ‘Plot’ experimental unit size Width: 1 meter, Treated ‘Plot’ experimental unit size Length: 1.4 meters, Application volume: 250 L/ha, Mix size: 0.15 liters, […]

[2] = tested on: SORVU Sorghum bicolor (Grain sorghum); experiment: Ipfencarbazone biostimulant effect, early post emergence foliar application, greenhouse pots, plant height: sorghum; format: in vivo; details: for Plant HEIGHT, Mean / Plant HEIGHT, single plots: Grain sorghum DKB 590, 15 DA-A; for HEIGHT, percent of untreated check (APoC) / HEIGHT, treatment mean / HEIGHT, single plots (replicates): SORVU DKB 590
Description: as §1, §2, §3

[3] = 62.5 g ai/ha, 28 DA-A, plots 102, 205, 302
[4] = 125 g ai/ha, 28 DA-A, plots 103, 206, 305
[5] = 62.5 g ai/ha + Energic NIS 0.2 % v/v
[6] = 125 g ai/ha + Energic NIS 0.2 % v/v
[7] = 250 g ai/ha + Energic NIS 0.2 % v/v
[8] = 500 g ai/ha + Energic NIS 0.2 % v/v

Compound: CC(C)N(C(=O)n1cnn(-c2ccc(Cl)cc2Cl)c1=O)c1ccc(F)cc1F [ARY-0572-001, ipfencarbazone]
- HEIGHT, percent of untreated check (APoC) ([1]; 62.5 g ai/ha, 15 DA-A): (105.6%)
- HEIGHT, treatment mean ([1]; 62.5 g ai/ha, 15 DA-A): 10.4 a cm and 10.4 cm
- HEIGHT, single plots (replicates) ([1]; 62.5 g ai/ha, 15 DA-A, plots 102, 205, 302): 11.7 cm (2×) and 8.0 cm
- HEIGHT, percent of untreated check (APoC) ([1]; 62.5 g ai/ha, 28 DA-A, AS square root transformation): (152.2%)
- HEIGHT, treatment mean ([1]; 62.5 g ai/ha, 28 DA-A, AS square root transformation (t)): 19.8 a cm and 19.8t cm
- HEIGHT, single plots (replicates) [1, 3]: 24.0 cm and 17.3 cm and 19.7 cm
- HEIGHT, percent of untreated check (APoC) ([1]; 125 g ai/ha, 15 DA-A): (75.8%)
- HEIGHT, treatment mean ([1]; 125 g ai/ha, 15 DA-A): 7.5 ab cm and 7.5 cm
- HEIGHT, single plots (replicates) ([1]; 125 g ai/ha, 15 DA-A, plots 103, 206, 305): 0.0 cm and 10.7 cm and 11.8 cm
- HEIGHT, percent of untreated check (APoC) ([1]; 125 g ai/ha, 28 DA-A, AS square root transformation): (91.8%)
- HEIGHT, treatment mean ([1]; 125 g ai/ha, 28 DA-A, AS square root transformation (t)): 12.0 a cm and 12.0t cm
- HEIGHT, single plots (replicates) [1, 4]: 4.3 cm and 16.0 cm and 20.3 cm
- HEIGHT, percent of untreated check (APoC) ([1]; 250 g ai/ha, 15 DA-A): (5.6%)
- HEIGHT, treatment mean ([1]; 250 g ai/ha, 15 DA-A): 0.6 c cm and 0.6 cm
- HEIGHT, single plots (replicates) ([1]; 250 g ai/ha, 15 DA-A, plots 104, 201, 306): 0.0 cm (2×) and 1.7 cm
- HEIGHT, percent of untreated check (APoC) ([1]; 250 g ai/ha, 28 DA-A, AS square root transformation): (2.5%)
- HEIGHT, treatment mean ([1]; 250 g ai/ha, 28 DA-A, AS square root transformation (t)): 0.3 a cm and 0.3t cm
- HEIGHT, single plots (replicates) ([1]; 250 g ai/ha, 28 DA-A, plots 104, 201, 306): 0.0 cm (2×) and 2.0 cm
- HEIGHT, percent of untreated check (APoC) ([1]; 500 g ai/ha, 15 DA-A): (6.7%)
- HEIGHT, treatment mean ([1]; 500 g ai/ha, 15 DA-A): 0.7 c cm and 0.7 cm
- HEIGHT, single plots (replicates) ([1]; 500 g ai/ha, 15 DA-A, plots 105, 202, 301): 2.0 cm and 0.0 cm (2×)
- HEIGHT, percent of untreated check (APoC) ([1]; 500 g ai/ha, 28 DA-A, AS square root transformation): (155.1%)
- HEIGHT, treatment mean ([1]; 500 g ai/ha, 28 DA-A, AS square root transformation (t)): 20.2 a cm and 20.2t cm
- HEIGHT, single plots (replicates) ([1]; 500 g ai/ha, 28 DA-A, plots 105, 202, 301): 73.0 cm and 0.0 cm and 25.0 cm
- HEIGHT, percent of untreated check (APoC) ([1]; 1000 g ai/ha, 15 DA-A): (59.0%)
- HEIGHT, treatment mean ([1]; 1000 g ai/ha, 15 DA-A): 5.8 b cm and 5.8 cm
- HEIGHT, single plots (replicates) ([1]; 1000 g ai/ha, 15 DA-A, plots 106, 203, 304): 5.0 cm and 6.7 cm and 5.8 cm
- HEIGHT, percent of untreated check (APoC) ([1]; 1000 g ai/ha, 28 DA-A, AS square root transformation): (51.7%)
- HEIGHT, treatment mean ([1]; 1000 g ai/ha, 28 DA-A, AS square root transformation (t)): 6.7 a cm and 6.7t cm
- HEIGHT, single plots (replicates) ([1]; 1000 g ai/ha, 28 DA-A, plots 106, 203, 304): 6.3 cm and 7.3 cm and 6.7 cm
- Plant HEIGHT, Mean [2, 5]: 59.9 cm
- Plant HEIGHT, single plots [2, 5]: 55.3 cm and 68.0 cm and 56.3 cm
- Plant HEIGHT, Mean [2, 6]: 59.3 cm
- Plant HEIGHT, single plots [2, 6]: 68.7 cm and 55.0 cm and 54.3 cm
- Plant HEIGHT, Mean [2, 7]: 61.3 cm
- Plant HEIGHT, single plots [2, 7]: 58.0 cm and 65.0 cm and 61.0 cm
- Plant HEIGHT, Mean [2, 8]: 60.4 cm
- Plant HEIGHT, single plots [2, 8]: 56.0 cm and 66.3 cm and 58.8 cm
- Plant HEIGHT, Mean ([2]; 1000 g ai/ha + Energic NIS 0.2 % v/v): 22.7 cm
- HEIGHT, percent of untreated check (APoC) ([2]; 62.5 g ai/ha, 15 DA-A): (246.1%)
- HEIGHT, treatment mean ([2]; 62.5 g ai/ha, 15 DA-A): 59.9 a cm
- HEIGHT, percent of untreated check (APoC) ([2]; 62.5 g ai/ha, 28 DA-A): (296.5%)
- HEIGHT, treatment mean ([2]; 62.5 g ai/ha, 28 DA-A): 85.0 a cm and 85.0 cm
- HEIGHT, single plots (replicates) [2, 3]: 73.0 cm and 110.7 cm and 71.3 cm
- HEIGHT, percent of untreated check (APoC) ([2]; 125 g ai/ha, 15 DA-A): (243.8%)
- HEIGHT, treatment mean ([2]; 125 g ai/ha, 15 DA-A): 59.3 a cm
- HEIGHT, percent of untreated check (APoC) ([2]; 125 g ai/ha, 28 DA-A): (277.1%)
- HEIGHT, treatment mean ([2]; 125 g ai/ha, 28 DA-A): 79.4 a cm and 79.4 cm
- HEIGHT, single plots (replicates) [2, 4]: 102.7 cm and 71.3 cm and 64.3 cm
- HEIGHT, percent of untreated check (APoC) ([2]; 250 g ai/ha, 15 DA-A): (252.1%)
